Data taken from US8546392B2, “17Beta-hydroxysteroid dehydrogenase type 1 inhibitors for the treatment of hormone-related diseases” (Universitaet des Saarlandes, priority 2008, dated 2013).

Tests used:
[1] = target: 17β-HSD2 (Homo sapiens (Human), UniProt P37059); test: 17β-HSD2 test assay (recombinant protein from Sf9 insect cells, 3H-estradiol/NAD+); format: biochemical; settings: for inhibition at 0.1 µM: read-out: HSD2 100 nM (% inhibition), inhibitor 100 nM; for inhibition at 1 µM: read-out: HSD2 1 μM (% inhibition), inhibitor 1 μM
Sequence of 17β-HSD2 (P37059 whole entry): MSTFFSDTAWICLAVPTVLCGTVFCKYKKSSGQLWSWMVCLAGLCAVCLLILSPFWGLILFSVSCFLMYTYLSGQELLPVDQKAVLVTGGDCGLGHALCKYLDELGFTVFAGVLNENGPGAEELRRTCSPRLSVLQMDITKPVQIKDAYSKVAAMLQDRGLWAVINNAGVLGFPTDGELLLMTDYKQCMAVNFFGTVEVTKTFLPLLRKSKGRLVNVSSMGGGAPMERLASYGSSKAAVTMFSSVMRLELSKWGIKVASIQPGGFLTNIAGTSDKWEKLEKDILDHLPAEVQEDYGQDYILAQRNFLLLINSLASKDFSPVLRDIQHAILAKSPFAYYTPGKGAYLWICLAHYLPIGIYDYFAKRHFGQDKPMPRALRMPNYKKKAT
Procedure: Recombinant protein obtained from Sf9 insect cells (0.1 μg/ml) is incubated with 20 mM KH2PO4, pH 7.4, 30 nM ^3H-estradiol and 1 mM NAD+ for 30 min at RT in the presence of the potential inhibitor in a concentration of 1 μM or 100 nM. The stock solutions of the compounds are prepared in DMSO so that the final concentration of DMSO in the sample is 1%. After the prescribed incubation time, the reaction is quenched by adding trichloroacetic acid (10% final concentration). The samples are centrifuged in microtitration plates at 400 rpm for 10 min, and the supernatants are charged on a reversed-phase HPLC equipped with a Waters Symmetrie C18 column and
Waters Sentry Guard column. The isocratic HPLC run is performed at RT with a flow rate of 1 ml/min and acetonitrile/water 48:52 as the eluent. The radioactivity was measured by means of a Packard Flow Scintillation Analyzer. The percent inhibition was calculated by means of the formulas stated above.

[2] = target: 17β-HSD1 (Homo sapiens (Human), UniProt P14061); test: 17β-HSD1 test assay (recombinant protein from Sf9 insect cells, 3H-estrone/NADPH); format: biochemical; settings: for inhibition at 1 µM: read-out: HSD 1 μM (% inhibition of HSD1), inhibitor 1 μM; for inhibition at 0.1 µM: read-out: HSD1 100 nM (% inhibition), inhibitor 100 nM
Sequence of 17β-HSD1 (P14061 whole entry): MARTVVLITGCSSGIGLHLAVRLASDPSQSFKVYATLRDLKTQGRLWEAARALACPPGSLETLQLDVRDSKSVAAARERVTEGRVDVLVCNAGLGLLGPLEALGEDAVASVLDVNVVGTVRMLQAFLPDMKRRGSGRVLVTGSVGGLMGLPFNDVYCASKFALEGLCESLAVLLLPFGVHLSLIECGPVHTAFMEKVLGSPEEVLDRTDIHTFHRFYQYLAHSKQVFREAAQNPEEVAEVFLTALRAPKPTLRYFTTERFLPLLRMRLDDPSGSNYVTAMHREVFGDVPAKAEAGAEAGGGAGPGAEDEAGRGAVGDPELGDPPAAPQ
Procedure: Recombinant protein obtained from Sf9 insect cells (0.1 μg/ml) is incubated with 20 mM KH2PO4, pH 7.4, 30 nM ^3H-estrone and 1 mM NADPH for 30 min at RT in the presence of the potential inhibitor in a concentration of 1 μM or 100 nM. The stock solutions of the compounds are prepared in DMSO (dimethylsulfoxide) so that the final concentration of DMSO in the sample is 1%. After the prescribed incubation time, the reaction is quenched by adding trichloroacetic acid (10% final concentration). The samples are centrifuged in microtitration plates at 400 rpm for 10 min, and the supernatants are charged on a reversed-phase HPLC equipped with a Waters Symmetrie C18 column and Waters Sentry Guard column. The isocratic HPLC run is performed at RT with a flow rate of 1 ml/min and acetonitrile/water 48:52 as the eluent. The radioactivity was measured by means of a Packard Flow Scintillation Analyzer. […]

SMILES	inhibition at 0.1 µM [1] [%]	inhibition at 1 µM [1] [%]	inhibition at 1 µM [2] [%]	inhibition at 0.1 µM [2] [%]
CNC(=O)/C=C/c1c(O)ccc2cc(-c3cccc(O)c3)ccc12 [Compound 39, (E)-3-(2-Hydroxy-6-(3-hydroxyphenyl)naphthalene-1-yl)-N-methylacrylamide]	33.9	73.2	57.6	19.2
CNC(=O)c1c(O)ccc2cc(-c3cccc(O)c3)ccc12 [Compound 41, 2-Hydroxy-6-(3-hydroxyphenyl)-N-methyl-1-naphthamide]	< 10	21.6	76.3	21.8
O=C(Nc1cccc(O)c1)c1c(O)ccc2cc(-c3cccc(O)c3)ccc12 [Compound 43, 2-Hydroxy-N,6-bis(3-hydroxyphenyl)-1-naphthamide]	< 10	< 10	69.9	20.5
COc1ccc(-c2ccc3c(O)cccc3c2)cc1 [Compound 25, 6-(4-Methoxyphenyl)-1-naphthol]			< 10	< 10
O=C(/C=C/c1c(O)ccc2cc(-c3cccc(O)c3)ccc12)Nc1ccccc1 [Compound 40, (E)-3-(2-Hydroxy-6-(3-hydroxyphenyl)naphthalene-1-yl)-N-phenylacrylamide]	28.1	76.9	60.4	< 10
O=C(c1c(O)ccc2cc(-c3cccc(O)c3)ccc12)N1CCNCC1 [Compound 45, (2-Hydroxy-6-(3-hydroxyphenyl)naphthalene-1-yl)(piperazin-1-yl)methanone]			44.5	< 10
O=[N+]([O-])c1cccc(-c2ccc3cc(O)ccc3c2)c1 [Compound 22, 6-(3-Nitrophenyl)-naphthalene-2-ol]			< 10	< 10
Oc1cccc(-c2ccc3ccccc3c2)c1 [Compound 3, 3-Naphthalene-2-ylphenol]			61	26
Oc1ccc(-c2cnc3ccccc3c2)cc1 [Compound 14, 4-(Quinolin-3-yl)phenol]			< 10	< 10
Oc1cncc(-c2ccc3cc(O)ccc3c2)c1 [Compound 17, 5-(6-Hydroxynaphthalene-2-yl)pyridin-3-ol]			57.7	30.3
OCc1ccc(-c2ccc3cc(O)ccc3c2)cc1 [Compound 11, 6-[4-(hydroxymethyl)phenyl]-2-naphthol]			12.9	< 10
CC(=O)Nc1cccc(-c2ccc3cc(O)ccc3c2)c1 [Compound 9, N-[3-(6-hydroxy-2-naphthyl)phenyl]acetamide]			18.5	< 10
CNC(=O)/C=C/c1cc(O)cc(-c2ccc3cc(O)ccc3c2)c1 [Compound 31, (E)-3-[3-Hydroxy-5-(6-hydroxynaphthalene-2-yl)phenyl]-N-methylacrylamide]			< 10	< 10
Oc1cccc(-c2cc3cc(O)ccc3[nH]2)c1 [Compound 1, 2-(3-Hydroxyphenyl)-1H-indol-5-ol]			< 10	< 10
CNC(=O)c1cc2cc(-c3cccc(O)c3)ccc2cc1O [Compound 37, 3-Hydroxy-7-(3-hydroxyphenyl)-N-methyl-2-naphthamide]			18	< 10
Oc1ccc2cc(-c3ccccc3O)ccc2c1 [Compound 18, 6-(2-Hydroxyphenyl)-2-naphthol]			< 10	< 10
Oc1cccc(-c2ccc3c(O)cccc3c2)c1 [Compound 24, 6-(3-Hydroxyphenyl)-1-naphthol]			< 10	< 10

Second part, the compound after the results:

inhibition at 0.1 µM [1] [%]	inhibition at 1 µM [1] [%]	inhibition at 1 µM [2] [%]	inhibition at 0.1 µM [2] [%]	SMILES
12.4	31.9	64.9	31.9	Oc1cccc(-c2ccc3c(-c4ccc(N5CCOCC5)cc4)c(O)ccc3c2)c1 [Compound 65, 6-(3-Hydroxyphenyl)-1-(4-morpholinophenyl)naphthalene-2-ol]
< 10	34.2	80	44.7	O=C(O)c1cccc(-c2c(O)ccc3cc(-c4cccc(O)c4)ccc23)c1 [Compound 63, 3-(2-Hydroxy-6-(3-hydroxyphenyl)naphthalene-1-yl)benzoic acid]
24.2	68	62.3	< 10	O=C(O)CCC(=O)Nc1ccc(-c2c(O)ccc3cc(-c4cccc(O)c4)ccc23)cc1 [Compound 67, 4-(4-(2-Hydroxy-6-(3-hydroxyphenyl)naphthalene-1-yl)phenylamino)-4-oxobutanoic acid]
	24	68		Cc1nnc(NC(=O)c2c(O)ccc3cc(-c4cccc(O)c4)ccc23)s1 [Compound 48, 2-Hydroxy-6-(3-hydroxyphenyl)-N-(5-methyl-1,3,4-thiadiazol-2-yl)-1-naphthamide]
< 10	35.8	80	< 10	CNC(=O)CCc1c(O)ccc2cc(-c3cccc(O)c3)ccc12 [Compound 55, 3-(2-Hydroxy-6-(3-hydroxyphenyl)naphthalene-1-yl)-N-methylpropanamide]
		79.4	64.7	CSc1nccc(-c2ccc(S(=O)(=O)Nc3cccc(-c4c(O)ccc5cc(-c6cccc(O)c6)ccc45)c3)s2)n1 [Compound 80, N-{3-[2-hydroxy-6-(3-hydroxyphenyl)-1-naphthyl]phenyl}-5-[2-(methylsulfanyl)pyrimidin-4-yl]thiophene-2-sulfonamide]
		78.2	68	O=S(=O)(Nc1cccc(-c2c(O)ccc3cc(-c4cccc(O)c4)ccc23)c1)c1cc(F)c(Br)cc1F [Compound 89, 4-bromo-2,5-difluoro-N-{3-[2-hydroxy-6-(3-hydroxyphenyl)-1-naphthyl]phenyl}benzenesulfonamide]
		73.4	28.8	O=C(c1c(O)ccc2cc(-c3cccc(O)c3)ccc12)N1CCCCC1 [Compound 51, (2-Hydroxy-6-(3-hydroxyphenyl)naphthalene-1-yl)(piperidin-1-yl)methanone]
		79.7	62.1	N#Cc1ccccc1S(=O)(=O)Nc1cccc(-c2c(O)ccc3cc(-c4cccc(O)c4)ccc23)c1 [Compound 76, 2-cyano-N-{3-[2-hydroxy-6-(3-hydroxyphenyl)-1-naphthyl]phenyl}benzenesulfonamide]
		82.9	71.5	O=[N+]([O-])c1ccc(S(=O)(=O)Nc2cccc(-c3c(O)ccc4cc(-c5cccc(O)c5)ccc34)c2)cc1 [Compound 81, N-{3-[2-hydroxy-6-(3-hydroxyphenyl)-1-naphthyl]phenyl}-4-nitrobenzenesulfonamide]
		80.9	71.6	O=S(=O)(Nc1cccc(-c2c(O)ccc3cc(-c4cccc(O)c4)ccc23)c1)c1ccc2ncsc2c1 [Compound 86, N-{3-[2-hydroxy-6-(3-hydroxyphenyl)-1-naphthyl]-phenyl}-1,3-benzothiazole-6-sulfonamide]
		77.7	54.5	O=S(=O)(Nc1cccc(-c2c(O)ccc3cc(-c4cccc(O)c4)ccc23)c1)c1cc(Br)c(Br)s1 [Compound 85, 4,5-dibromo-N-{3-[2-hydroxy-6-(3-hydroxyphenyl)-1-naphthyl]phenyl}thiophene-2-sulfonamide]
		75		Cc1ccc(S(=O)(=O)c2c(O)ccc3cc(-c4cccc(O)c4)ccc23)cc1 [Compound 92]
		77.3	16.5	CS(=O)(=O)NC(=O)c1cccc(-c2c(O)ccc3cc(-c4cccc(O)c4)ccc23)c1 [Compound 90, 3-(2-Hydroxy-6-(3-hydroxyphenyl)naphthalene-1-yl)-N-(methylsulfonyl)-benzamide]
18	67	74.4	32.3	N#Cc1cc(-c2cccc(O)c2)cc2ccc(O)cc12 [Compound 53, 7-Hydroxy-3-(3-hydroxyphenyl)-1-naphthonitrile]
		80.2	73.8	CC(=O)Nc1ccc(S(=O)(=O)Nc2cccc(-c3c(O)ccc4cc(-c5cccc(O)c5)ccc34)c2)cc1 [Compound 79, N-(4-{3-[2-hydroxy-6-(3-hydroxyphenyl)-1-naphthyl]phenylsulfamoyl}phenyl)acetamide]
